Assay results as given in PubChem BioAssay (NCI).
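A five-concentration, 48-hour dose response in 96-well plates underlies each endpoint, interpolated linearly between surrounding concentrations. TGI is the concentration that stops growth completely.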

Experiments:
Experiment in all cases: NCI-60 cell line screen, 48 h
UACC-62 melanoma = test system: UACC-62 melanoma
SF-539 CNS = test system: SF-539 CNS
DMS 273 small cell lung = test system: DMS 273 small cell lung
DMS 114 small cell lung = test system: DMS 114 small cell lung
HCT-15 colon = test system: HCT-15 colon
SK-OV-3 ovarian = test system: SK-OV-3 ovarian
OVCAR-8 ovarian = test system: OVCAR-8 ovarian
RPMI-8226 leukemia = test system: RPMI-8226 leukemia
M14 melanoma = test system: M14 melanoma
A498 renal = test system: A498 renal

| SMILES | TGI (UACC-62 melanoma) [µM] | TGI (SF-539 CNS) [µM] | TGI (DMS 273 small cell lung) [µM] | TGI (DMS 114 small cell lung) [µM] | TGI (HCT-15 colon) [µM] | TGI (SK-OV-3 ovarian) [µM] | TGI (OVCAR-8 ovarian) [µM] | TGI (RPMI-8226 leukemia) [µM] | TGI (M14 melanoma) [µM] | TGI (A498 renal) [µM] |
| --- | --- | --- | --- | --- | --- | --- | --- | --- | --- | --- |
| C[C@]12CCC(=O)C=C1CC[C@@H]1C2CC[C@@]2(C)C1CC[C@@H]2OC(=O)C12OC1CCC2=O (some centres not stated) | 35.2 | 36.6 | 31.1 | 34.3 | 30.7 | > 100 | 38.6 | 52.1 | 32.9 | 35.6 |
| Nc1ccn(CCCC(c2ccccc2)P(=O)(O)O)c(=O)n1 (configuration not stated) | > 100 | > 100 | > 100 | > 100 | > 100 | > 100 | > 100 | > 100 | > 100 | > 100 |
| CN(C)CCNC(=O)c1cccc2[nH]c(-c3ccc(Cl)cc3)nc12 | 17.5 | 16.9 | 14.3 | 21.7 | 19.9 | 25.1 | 20.8 | 8.78 |  | 24 |
| COc1cccc2c1C(=O)c1c(O)c3c(c(O)c1C2=O)CC(O)(C(C)=O)CC3O (configuration not stated) | 14.4 | 21.3 | 15.6 | 24.1 | 39.8 | 36.9 | 10.6 | 16.6 |  | 17.2 |
| O=P(Nc1cccc(Cl)c1)(Oc1ccccc1)N(CCCl)CCCl (configuration not stated) | 24.4 | 31.2 | 27.3 | 26.1 | 28.7 | > 100 | 37.9 |  | 28.6 | 27.6 |
